Measurements reported in patent US9682954B2, “Phenanthridine derivatives, preparation methods and uses thereof” (Kunming Institute of Botany, The Chinese Academy of Sciences, priority 2013, dated 2017).

Columns and labels:
Wnt signaling pathway = assay: Activity assay of the reporter gene (Wnt signaling pathway activation, Wnt3a conditioned medium); type: cell-based
Method: After 6 hours, the cells are collected and activities of the report genes are determined.
Activity Assay of the Reporter Gene
HEK293T, HCT116, SW480 or NIH3T3 cells used for activity assay of the reporter gene were inoculated into 24-wells plates respectively 24 hours before transfection then transfected following the above mentioned reference method. The amount of the plasmids used for Transfection was: 20 ng of TOPFlash, NFAT-Luc, or SRF-Luc, and 25 ng of EGFP-C1 (HEK293T); 25 ng of LEF-Luc, 75 ng of LEF1, and 25 ng of EGFP-C1 (NIH3T3); 100 ng of TOPFlash or Fopfllash and 100 ng of EGFP-C1 (HCT116 and SW480). The cells were transfected with other plasmids following experimental requirements, LacZs were added to meet a total content of 250 ng (in RNAi and plasmid co-transfection experiments, 1 μl of siRNA was added when every 100 ng/well of the plasmid was transfected). Wnt3a conditioned medium was added 18 hours after transfection to stimulate the cells for 6-8 hours, the cells were lysed using Boehringer Mannheim Luci-ferase Assay Kit (200 μl/well). Intensity of GFP proteins in cell lysates were determined as internal standards of expression quantity of the cells using fluorescence meter FL600 (BIO-TEK Inc. Winooski, Vt.), and then 20 μl of luciferase substrates were added. Luciferase activity was determined with Micro Lumate Plus (Perkin Elmer Inc. Wellesley, Mass.) luminometer. Finally, the luciferase activity was homogenized using activity of GFP.

Huh7.5 cells = assay: in vitro
Method: (§1) (1) Toxicity Experiment of the Compound on Huh7.5:
(§2) 100 μL of Huh7.5 cells (1×10^5/ml) was inoculated in 96-wells plates and incubated in an incubator at 37° C. under 5% of CO2 and saturated humidity for 24 hrs. Then different concentration of the compound of the present invention and positive control (VX-950, telaprevir) were added respectively and incubated for a further 72 hrs. 10 μL of MTT (5 mg/mL) was added per well and incubated for another 4 hrs. After the cells were lysed with DMSO, OD570-630 […] was determined on ELIASA. In comparison with OD of the control group, inhibitory rate of each concentration on cell toxicity was calculated, and half toxic concentration of the compound was calculated with Reed-Muench method.

HCV = assay: microbe, parasite or virus in culture; type: cell-based, Hepatitis C Virus (HCV); conditions: Huh7.5 cells infected with HCV, 72 hrs, intracellular HCV RNA by qRT-PCR, Reed-Muench method; read-out: EC50
Method: (2) Anti-HCV Activity of the Compound in Cells:
The total RNA was extracted from the cells. The intracellular content of HCV and RNA of internal control gene GAPDH were determined by real-time fluorescence qRT-PCR.

[1] = Toxicity experiment of the compound on Huh7.5 (MTT); conditions: human, CC50, Huh7.5 cells, 72 hrs, MTT, half toxic concentration by Reed-Muench method
Method: as §1, §2

## CCc1cccc2c1N(C)Cc1cc(OCc3cn(CCN)nn3)c(OCc3cn(CCN)nn3)cc1-2 [Compound 10q, 4-ethyl-5-methyl-8,9-bis[1-(2-amino-ethyl)-1H-[1,2,3]triazol-4-ylmethoxy]-5,6-dihydro-phenanthridine]
Wnt signaling pathway; in the way of depending on Wnt3a receptors
  activation of the reporter gene systems of classical Wnt signaling pathway: activate the reporter gene systems of classical Wnt signaling pathway
Wnt signaling pathway; reporter gene, with Wnt3a conditioned medium
  Concentration of compounds for doubly synergetic activating Wnt reporter gene: 1.25 µM
other
  melting point: 196 to 197 °C

## CCOc1cc2c(cc1OCC)-c1cccc(CC)c1N(C)C2 [Compound 10b, 4-ethyl-5-methyl-8,9-diethyoxy-5,6-dihydro-phenanthridine]
Huh7.5 cells
  CC50: > 100 µM
HCV
  EC50: 1.63 ± 1.22 µM

## C=Cc1cccc2c1N(C)Cc1cc(OC(=O)c3ccc(Br)cc3)c(OC(=O)c3ccc(Br)cc3)cc1-2 [Compound 11n, 4-ethenyl-5-methyl-8,9-di(4-bromo)benzoyloxy-5,6-dihydro-phenanthridine]
Huh7.5 cells
  CC50: 82.6 ± 3.28 µM
HCV
  EC50: 4.58 ± 0.55 µM

## CCCCC(=O)Oc1cc2c(cc1OC(=O)CCCC)-c1cccc(CC)c1N(C)C2 [Compound 10m, 4-ethyl-5-methyl-8,9-divaleryoxy-5,6-dihydro-phenanthridine]
Huh7.5 cells
  CC50: > 100 µM
HCV
  EC50: 9.39 ± 0.46 µM

## CCC[C@H](NC(=O)[C@@H]1[C@H]2CCC[C@H]2CN1C(=O)[C@@H](NC(=O)[C@@H](NC(=O)c1cnccn1)C1CCCCC1)C(C)(C)C)C(=O)C(=O)NC1CC1 [VX-950, telaprevir, reference compound]
[1]
  CC50 at 72 h: 39.5 ± 4.9 µM
Huh7.5 cells; Huh7.5 cells, 72 hrs, MTT, half toxic concentration by Reed-Muench method
  CC50: 32.5 ± 0.58 µM

## C=Cc1cccc2c1N(C)Cc1cc(OCc3ccc(C#N)cc3)c(OCc3ccc(C#N)cc3)cc1-2 [Compound 11g, 4-ethenyl-5-methyl-8,9-di(4-cyano)benzyloxy-5,6-dihydro-phenanthridine]
Huh7.5 cells
  CC50: 25.9 ± 0.82 µM
HCV
  EC50: > 0.37 µM
